The subject of this assay is PC3 cells. Kind of assay: NAMPT Cell Proliferation Assay. It is filed as cell-based. Conditions: Homo sapiens, PC-3, 120 h, 5 days incubation, cell viability by Cell Titer Glo. A digest of the protocol: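 Five-day CellTiter-Glo viability readout in PC3 cells grown in RPMI/10% heat-inactivated FBS. Compounds added after overnight attachment as a 10-fold dilution series, […]. Percent inhibition fitted to sigmoidal dose-response to derive IC50.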
In turn, `COc1ccc(C(=O)N2CCC(c3ccc(NC(=O)C4CN(c5cccnn5)C4)cc3)CC2)cc1` [Example 347, N-{4-[1-(4-methoxybenzoyl)piperidin-4-yl]phenyl}-1-(pyridazin-3-yl)azetidine-3-carboxamide] showed an IC50 of 8.06 nM.

Take `O=C(Nc1ccc(C2CCN(C(=O)c3cccc(F)c3)CC2)cc1)C1CN(c2cccnn2)C1` [Example 348, N-{4-[1-(3-fluorobenzoyl)piperidin-4-yl]phenyl}-1-(pyridazin-3-yl)azetidine-3-carboxamide]: half-maximal inhibition (IC50) required 2 nM.

`O=C(Nc1ccc(C2CCN(C(=O)c3ccc(F)cc3)CC2)cc1)C1CN(c2cccnn2)C1` [Example 349, N-{4-[1-(4-fluorobenzoyl)piperidin-4-yl]phenyl}-1-(pyridazin-3-yl)azetidine-3-carboxamide]: the IC50 is 7.28 nM.

Take `O=C(Nc1ccc(C2CCN(C(=O)c3ccccc3Cl)CC2)cc1)C1CN(c2cccnn2)C1` [Example 350, N-{4-[1-(2-chlorobenzoyl)piperidin-4-yl]phenyl}-1-(pyridazin-3-yl)azetidine-3-carboxamide]: half-maximal inhibition (IC50) required 0.75 nM.

Compound `O=C(Nc1ccc(C2CCN(C(=O)c3cccc(Cl)c3)CC2)cc1)C1CN(c2cccnn2)C1` [Example 351, N-{4-[1-(3-chlorobenzoyl)piperidin-4-yl]phenyl}-1-(pyridazin-3-yl)azetidine-3-carboxamide] registered an IC50 of 2.36 nM.

For the compound `N#Cc1cccc(C(=O)N2CCC(c3ccc(NC(=O)C4CN(c5cccnn5)C4)cc3)CC2)c1` [Example 352, N-{4-[1-(3-cyanobenzoyl)piperidin-4-yl]phenyl}-1-(pyridazin-3-yl)azetidine-3-carboxamide], the IC50 came out at 8.88 nM.

For `N#Cc1ccc(C(=O)N2CCC(c3ccc(NC(=O)C4CN(c5cccnn5)C4)cc3)CC2)cc1` [Example 353, N-{4-[1-(4-cyanobenzoyl)piperidin-4-yl]phenyl}-1-(pyridazin-3-yl)azetidine-3-carboxamide], the half-maximal inhibitory concentration (IC50) stood at 7.15 nM.

`O=C(Nc1ccc(C2CCN(C(=O)c3cccc(C(F)(F)F)c3)CC2)cc1)C1CN(c2cccnn2)C1` [Example 354, 1-(pyridazin-3-yl)-N-(4-{1-[3-(trifluoromethyl)benzoyl]piperidin-4-yl}phenyl)azetidine-3-carboxamide] had an IC50 of 7.51 nM.

In turn, `O=C(Nc1ccc(C2CCN(C(=O)c3ccc(C(F)(F)F)cc3)CC2)cc1)C1CN(c2cccnn2)C1` [Example 355, 1-(pyridazin-3-yl)-N-(4-{1-[4-(trifluoromethyl)benzoyl]piperidin-4-yl}phenyl)azetidine-3-carboxamide] had an IC50 of 9.79 nM.

`O=C(Nc1ccc(C2CCN(C(=O)c3cccc(OC(F)(F)F)c3)CC2)cc1)C1CN(c2cccnn2)C1` [Example 356, 1-(pyridazin-3-yl)-N-(4-{1-[3-(trifluoromethoxy)benzoyl]piperidin-4-yl}phenyl)azetidine-3-carboxamide]: half-maximal inhibition (IC50) was put at 9.09 nM.

The compound `Cc1cccc(C(=O)N2CCC(c3ccc(NC(=O)C4CN(c5cccnn5)C4)cc3)CC2)c1C` [Example 357, N-{4-[1-(2,3-dimethylbenzoyl)piperidin-4-yl]phenyl}-1-(pyridazin-3-yl)azetidine-3-carboxamide] gave an IC50 of 1.47 nM.

Regarding `Cc1ccc(C(=O)N2CCC(c3ccc(NC(=O)C4CN(c5cccnn5)C4)cc3)CC2)c(C)c1` [Example 358, N-{4-[1-(2,4-dimethylbenzoyl)piperidin-4-yl]phenyl}-1-(pyridazin-3-yl)azetidine-3-carboxamide], the IC50 was 1.86 nM.

`Cc1ccc(C)c(C(=O)N2CCC(c3ccc(NC(=O)C4CN(c5cccnn5)C4)cc3)CC2)c1` [Example 359, N-{4-[1-(2,5-dimethylbenzoyl)piperidin-4-yl]phenyl}-1-(pyridazin-3-yl)azetidine-3-carboxamide]: 1.77 nM corresponded to half-maximal inhibition (IC50).

As for `Cc1ccc(C(=O)N2CCC(c3ccc(NC(=O)C4CN(c5cccnn5)C4)cc3)CC2)cc1C` [Example 360, N-{4-[1-(3,4-dimethylbenzoyl)piperidin-4-yl]phenyl}-1-(pyridazin-3-yl)azetidine-3-carboxamide], the IC50 amounted to 2.35 nM.

These data come from patent US20130303509A1, “NAMPT INHIBITORS” (AbbVie Inc., priority 2012, published 2013).
